Among the data in patent US7989474B2, “Use of Lck inhibitors for treatment of immunologic diseases” (Boehringer Ingelheim Pharma GmbH & Co. KG, priority 2002, dated 2011) are IC50 values, retold here.

Molecules are shown by their SMILES.

One may read the IC50 as the point on the concentration scale where inhibition reaches its midpoint.

This assay addresses T1, lck enzyme (Homo sapiens, UniProt P06239).
T1 construct: The lck enzyme comprises the entire lck molecule except the first nine amino acids which are replaced by an His-tag; His-tag (N); made in house
As to the kind of experiment: Non-Radioactive Kinase Assay (lck). Particulars: mean values of two independent experiments. It is filed as biochemical. On the procedure: The lck enzyme comprises the entire lck molecule except the first nine amino acids which are replaced by an His-tag for purification purposes. The enzyme is affinity purified.
The reaction is started by the addition of 50 μl 500 μM ATP (in 10 mM MgAc2) and is performed at room temperature.
The solution is incubated for one hour at room temperature and the supernatant discarded. The well is washed twice with 300 μl PBS.

T1 sequence (P06239 10-509 limits assumed, species assumed): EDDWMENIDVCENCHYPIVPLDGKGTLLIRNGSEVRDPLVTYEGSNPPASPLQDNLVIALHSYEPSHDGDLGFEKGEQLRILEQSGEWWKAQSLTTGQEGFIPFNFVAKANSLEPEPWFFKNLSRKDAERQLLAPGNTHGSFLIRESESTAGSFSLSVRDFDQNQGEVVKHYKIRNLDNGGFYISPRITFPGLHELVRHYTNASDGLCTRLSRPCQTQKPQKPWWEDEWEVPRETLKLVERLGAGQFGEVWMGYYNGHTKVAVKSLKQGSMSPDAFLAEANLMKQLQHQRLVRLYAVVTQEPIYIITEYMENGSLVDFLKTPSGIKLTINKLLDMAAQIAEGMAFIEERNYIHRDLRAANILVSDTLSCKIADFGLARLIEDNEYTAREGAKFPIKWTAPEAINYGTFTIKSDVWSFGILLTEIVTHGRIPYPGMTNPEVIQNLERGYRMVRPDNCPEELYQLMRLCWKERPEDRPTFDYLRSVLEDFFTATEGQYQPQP

As to `COC(=O)c1ccc2c(c1)NC(=O)/C2=C(\Nc1ccc(N(C)C(=O)CN(C)C)cc1)c1ccccc1` [(AI), (Z)-3-(1-(4-(N-(dimethylaminomethylcarbonyl)-N-methyl-amino)-phenylamino)-1-phenyl-methylene)-6-methoxycarbonyl-2-indolinone], the IC50 worked out at 36 nM.
